Data from article PMC5943542, “Targeting LMW‐PTP to sensitize melanoma cancer cells toward chemo‐ and radiotherapy” (Cancer Medicine, 2018).

Biological target: T1, LMW-PTP (recombinant isoforms IF-A and IF-B) (Homo sapiens, UniProt P24666)
T1 construct: gene ACP1; purified recombinant human LMW-PTP, isoform A (IF-A) and isoform B (IF-B)
T1 sequence (P24666 2-158): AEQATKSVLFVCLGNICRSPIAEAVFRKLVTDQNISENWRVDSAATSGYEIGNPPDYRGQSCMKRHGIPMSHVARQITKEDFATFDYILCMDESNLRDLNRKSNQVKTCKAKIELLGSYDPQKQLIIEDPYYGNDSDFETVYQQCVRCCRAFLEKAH
Assay: p-nitrophenylphosphate hydrolysis kinetics with purified recombinant enzyme, double reciprocal plots
Format: biochemical

O=c1c(O)c(-c2ccc(O)cc2O)oc2cc(O)cc(O)c12 [Morin]
Ki: micromolar range
